From US8697742B2, “BCRP/ABCG2 inhibitor” (Kabushiki Kaisha Yakult Honsha, priority 2005, dated 2014)
In brackets after ≈: the same amount, converted by molar mass. Structures can show the parent of a compound that is named as a salt. Where two headings read alike, the source gives them in different places.

Tested on: A549/SN-38-4 cells
Test: Effect of overcoming SN-38 resistance of BCRP-expressing A549/SN-38-4 cells
Assay type: cell-based, human
Conditions: 48 hours culture with SN-38; for EC50: Homo sapiens, A549, 48 h
Description: The human lung cancer A549 cells or the A549/SN-38-4 cells were suspended in a Ham's F-12 medium containing 10% FBS, 100 U/mL of penicillin, and 100 μg/mL of streptomycin (10% FBS/Ham's F-12), and the resultant suspension was inoculated into a 96-well microplate (2×10^3 cells/50 μL/well), followed by culturing at 5% CO2 and 37° C. overnight. […] After completion of culturing, the number of viable cells was counted by use of a viable cell counting reagent [TetraColor ONE (trademark), product of Seikagaku Corporation] according to the attached instruction manual. […] The greater the relative resistance value, the higher the level of acquired resistance.

[1] = concentration for 50% reduction of relative SN-38 resistance value (IC50 A549/SN-38-4 / IC50 A549), read-out: Effect of overcoming resistance EC50
[2] = concentration for 50% reduction of relative SN-38 resistance value (IC50 A549/SN-38-4 / IC50 A549)

COc1ccc(/C(C#N)=C/c2ccc(Br)o2)cc1OC [Compound 54, (Z)-3-(5-bromo-furan-2-yl)-2-(3,4-dimethoxy-phenyl)-acrylonitrile]
EC50 [1]: 0.036 µg/mL (≈ 0.108 µM)

COc1ccc(/C(C#N)=C/c2ccc(N3CCN(CCO)CC3)s2)cc1OC.CS(=O)(=O)O [Compound 59, (Z)-2-(3,4-dimethoxy-phenyl)-3-{5-[4-(2-hydroxy-ethyl)-piperazin-1-yl]-thiophen-2-yl}-acrylonitrile methanesulfonate]
EC50 [1]: 0.061 µg/mL

CCN(CC)CCCNC(=O)CCC(=O)OC1CCN(c2ccc(/C=C(\C#N)c3ccc(OC)c(OC)c3)s2)CC1 [Compound 61, 1-[5-[(Z)-2-cyano-2-(3,4-dimethoxy-phenyl)-vinyl]-thiophen-2-yl]-piperidin-4-yl N-(3-diethylamino-propyl)-succinamate hydrochloride]
EC50 [1]: 0.044 µg/mL

COc1ccc(/C(C#N)=C/c2ccc(N3CCC(OC(=O)CN(C)C)CC3)s2)cc1OC.Cc1ccc(S(=O)(=O)O)cc1 [Compound 62, 1-[5-[(Z)-2-cyano-2-(3,4-dimethoxy-phenyl)-vinyl]-thiophen-2-yl]-piperidin-4-yl dimethylamino-acetate p-toluenesulfonate]
EC50 [1]: 0.062 µg/mL

COc1ccc(/C(C#N)=C/c2ccc(N3CCC(OC(=O)CCC(=O)N4CCC(N5CCCCC5)CC4)CC3)s2)cc1OC.Cl [Compound 64, 1-[5-[(Z)-2-cyano-2-(3,4-dimethoxy-phenyl)-vinyl]-thiophen-2-yl]-piperidin-4-yl 4-[1,4′]bipiperidinyl-1′-yl-4-oxo-butylate hydrochloride]
Effect of overcoming resistance EC50 [2]: 53 ng/mL

COc1ccc(/C(C#N)=C/c2ccnc3ccccc23)cc1OC [Compound 65, (Z)-2-(3,4-dimethoxy-phenyl)-3-quinolin-4-yl-acrylonitrile]
EC50 [1]: 0.011 µg/mL (≈ 0.0348 µM)

COc1ccc(/C(C#N)=C/c2csc3ccccc23)cc1OC [Compound 66, (Z)-3-benzo[b]thiophen-3-yl-2-(3,4-dimethoxy-phenyl)-acrylonitrile]
EC50 [1]: 0.037 µg/mL (≈ 0.115 µM)

COc1ccc(/C(C#N)=C/c2nc3ccccc3n2C)cc1OC [Compound 67, (Z)-2-(3,4-dimethoxy-phenyl)-3-(1-methyl-1H-benzimidazol-2-yl)-acrylonitrile]
EC50 [1]: 0.1 µg/mL (≈ 0.313 µM)

COc1ccc(/C(C#N)=C/c2cn(C)c3ccccc23)cc1OC [Compound 68, (Z)-2-(3,4-dimethoxy-phenyl)-3-(1-methyl-1H-indol-3-yl)-acrylonitrile]
EC50 [1]: 0.011 µg/mL (≈ 0.0346 µM)

COc1ccc(/C(C#N)=C/c2cc3ccccc3o2)cc1OC [Compound 69, (Z)-3-benzofuran-2-yl-(3,4-dimethoxy-phenyl)-acrylonitrile]
Effect of overcoming resistance EC50 [2]: 43 ng/mL

COc1ccc(/C(C#N)=C/c2cc3ccccc3nc2Cl)cc1OC [Compound 70, (Z)-3-(2-chloro-quinolin-3-yl)-2-(3,4-dimethoxy-phenyl)-acrylonitrile]
EC50 [1]: 0.011 µg/mL (≈ 0.0314 µM)

COc1ccc(/C=C(\C#N)c2coc3ccccc23)cc1OC [Compound 72, (Z)-2-benzofuran-3-yl-3-(3,4-dimethoxy-phenyl)-acrylonitrile]
Effect of overcoming resistance EC50 [2]: 11 ng/mL

COc1ccc2nc(Cl)c(/C=C(\C#N)c3ccc(OC)c(OC)c3)cc2c1 [Compound 73, (Z)-3-(2-chloro-6-methoxy-quinolin-3-yl)-2-(3,4-dimethoxy-phenyl)-acrylonitrile]
EC50 [1]: 0.011 µg/mL (≈ 0.0289 µM)

COc1ccc(/C=C(\C#N)c2nc3ccccc3s2)cc1OC [Compound 74, (E)-2-benzothiazol-2-yl-3-(3,4-dimethoxy-phenyl)-acrylonitrile]
EC50 [1]: 0.021 µg/mL (≈ 0.0651 µM)

COc1ccc(/C(C#N)=C/c2ccc3c(c2)CCO3)cc1OC [Compound 75, (Z)-3-(2,3-dihydro-benzofuran-5-yl)-2-(3,4-dimethoxy-phenyl)-acrylonitrile]
EC50 [1]: 0.017 µg/mL (≈ 0.0553 µM)

COc1ccc(/C(C#N)=C/c2cc(-c3ccc(F)cc3)on2)cc1OC [Compound 76, (Z)-2-(3,4-dimethoxy-phenyl)-3-[5-(4-fluoro-phenyl)-isoxazol-3-yl]-acrylonitrile]
EC50 [1]: 0.002 µg/mL (≈ 0.00571 µM)

COc1ccc(-c2cc(/C=C(\C#N)c3ccc(OC)c(OC)c3)no2)cc1 [Compound 77, (Z)-2-(3,4-dimethoxy-phenyl)-3-[5-(4-methoxy-phenyl)-isoxazol-3-yl]-acrylonitrile]
EC50 [1]: 0.11 µg/mL (≈ 0.304 µM)

COc1ccc(/C(C#N)=C/c2ccc3ccccc3n2)cc1OC [Compound 78, (Z)-2-(3,4-dimethoxy-phenyl)-3-quinolin-2-yl-acrylonitrile]
EC50 [1]: 0.077 µg/mL (≈ 0.243 µM)

COc1ccc2nc(Cl)c(/C=C(\C#N)c3ccccn3)cc2c1 [Compound 79, (Z)-3-(2-chloro-6-methoxy-quinolin-3-yl)-2-pyridin-2-yl-acrylonitrile]
EC50 [1]: 0.006 µg/mL (≈ 0.0186 µM)

COc1ccc2nc(Cl)c(/C=C(\C#N)c3cccnc3)cc2c1 [Compound 80, (Z)-3-(2-chloro-6-methoxy-quinolin-3-yl)-2-pyridin-3-yl-acrylonitrile]
EC50 [1]: 0.019 µg/mL (≈ 0.059 µM)

COc1ccc2nc(Cl)c(/C=C(\C#N)c3ccsc3)cc2c1 [Compound 82, (Z)-3-(2-chloro-6-methoxy-quinolin-3-yl)-2-thiophen-3-yl-acrylonitrile]
EC50 [1]: 0.078 µg/mL (≈ 0.239 µM)

COc1ccc2nc(Cl)c(/C=C(\C#N)n3nnc4ccccc43)cc2c1 [Compound 83, (E)-2-benzotriazol-1-yl-3-(2-chloro-6-methoxy-quinolin-3-yl)-acrylonitrile]
EC50 [1]: 0.19 µg/mL (≈ 0.525 µM)

N#C/C(=C\c1ccnc2ccccc12)c1ccccn1 [Compound 85, (Z)-2-pyridin-2-yl-3-quinolin-4-yl-acrylonitrile]
EC50 [1]: 0.23 µg/mL (≈ 0.894 µM)

N#C/C(=C\c1ccnc2ccccc12)c1cccnc1 [Compound 86, (Z)-2-pyridin-3-yl-3-quinolin-4-yl-acrylonitrile]
EC50 [1]: 0.12 µg/mL (≈ 0.466 µM)

N#C/C(=C\c1ccnc2ccccc12)c1cccs1 [Compound 87, (E)-3-quinolin-4-yl-2-thiophen-2-yl-acrylonitrile]
EC50 [1]: 0.046 µg/mL (≈ 0.175 µM)

N#C/C(=C\c1ccnc2ccccc12)c1ccsc1 [Compound 88, (Z)-3-quinolin-4-yl-2-thiophen-3-yl-acrylonitrile]
EC50 [1]: 0.07 µg/mL (≈ 0.267 µM)

N#C/C(=C\c1csc2ccccc12)c1nc2ccccc2s1 [Compound 90, (E)-3-benzo[b]thiophen-3-yl-2-benzothiazol-2-yl-acrylonitrile]
EC50 [1]: 0.46 µg/mL (≈ 1.44 µM)

N#C/C(=C\c1cc2ccccc2o1)c1coc2ccccc12 [Compound 91, (Z)-3-benzofuran-2-yl-2-benzofuran-3-yl-acrylonitrile]
EC50 [1]: 0.52 µg/mL (≈ 1.82 µM)

Cn1cc(/C=C(\C#N)c2nc3ccccc3s2)c2ccccc21 [Compound 92, (E)-2-benzothiazol-2-yl-3-(1-methyl-1H-indol-3-yl)-acrylonitrile]
EC50 [1]: 0.041 µg/mL (≈ 0.13 µM)

COc1ccc(/C(C#N)=C/c2c3ccccc3c(Cl)c3ccccc23)cc1OC [Compound 93, (Z)-3-(10-chloro-anthracen-9-yl)-2-(3,4-dimethoxy-phenyl)-acrylonitrile]
EC50 [1]: 0.28 µg/mL (≈ 0.7 µM)

COc1ccc(/C(C#N)=C/c2cc3ccccc3c3ccccc23)cc1OC [Compound 95, (Z)-2-(3,4-dimethoxy-phenyl)-3-phenanthren-9-yl-acrylonitrile]
EC50 (read-out: Effect of overcoming resistance EC50, concentration for 50% reduction of relative SN-38 resistance value (IC50 A549/SN-38-4 / IC50 A549)): 0.008 µg/mL (≈ 0.0219 µM)

CCN(CC)CC(=O)OC1CCN(c2ccc(/C=C(\C#N)c3ccc(OC)c(OC)c3)s2)CC1.Cc1ccc(S(=O)(=O)O)cc1 [Compound 96, 1-[5-[(Z)-2-cyano-2-(3,4-dimethoxy-phenyl)-vinyl]-thiophen-2-yl]-piperidin-4-yl diethylamino-acetate p-toluenesulfonate]
EC50 [1]: 0.12 µg/mL

CCN(CC)C(=O)OC1CCN(c2ccc(/C=C(\C#N)c3ccc(OC)c(OC)c3)s2)CC1 [Compound 97, 1-[5-[(Z)-2-cyano-2-(3,4-dimethoxy-phenyl)-vinyl]-thiophen-2-yl]-piperidin-4-yl diethyl-carbamate]
EC50 [1]: 0.078 µg/mL (≈ 0.166 µM)

CCN(CC)CCN(C)C(=O)CCC(=O)OC1CCN(c2ccc(/C=C(\C#N)c3ccc(OC)c(OC)c3)s2)CC1 [Compound 98, 1-[5-[(Z)-2-cyano-2-(3,4-dimethoxy-phenyl)-vinyl]-thiophen-2-yl]-piperidin-4-yl N-(2-diethylamino-ethyl)-N-methyl-succinamate hydrochloride]
EC50 [1]: 0.1 µg/mL

CCN(CC)c1ccc(NC(=O)CCC(=O)OC2CCN(c3ccc(/C=C(\C#N)c4ccc(OC)c(OC)c4)s3)CC2)cc1 [Compound 99, 1-[5-[(Z)-2-cyano-2-(3,4-dimethoxy-phenyl)-vinyl]-thiophen-2-yl]-piperidin-4-yl N-(4-diethylamino-phenyl)-succinamate]
EC50 [1]: 0.063 µg/mL (≈ 0.102 µM)

COc1ccc(/C(C#N)=C/c2ccc(N3CCN(CCO)CC3)s2)cc1OC.COc1ccc(/C(C#N)=C/c2ccc(N3CCN(CCO)CC3)s2)cc1OC.O=S(=O)(O)O [Compound 100, (Z)-2-(3,4-dimethoxy-phenyl)-3-{5-[4-(2-hydroxy-ethyl)-piperazin-1-yl]-thiophen-2-yl}-acrylonitrile ½ sulfate]
Effect of overcoming resistance EC50 [2]: 12 ng/mL

COc1ccc(/C(C#N)=C/c2ccc(N3CCN(CCO)CC3)s2)cc1OC.O=S(=O)(O)O [Compound 101, (Z)-2-(3,4-dimethoxy-phenyl)-3-{5-[4-(2-hydroxy-ethyl)-piperazin-1-yl]-thiophen-2-yl}-acrylonitrile sulfate]
EC50 [1]: 0.013 µg/mL

COc1ccc(/C(C#N)=C/c2ccc(N3CCN(CCO)CC3)s2)cc1OC [Compound 102, (Z)-2-(3,4-dimethoxy-phenyl)-3-{5-[4-(2-hydroxy-ethyl)-piperazin-1-yl]-thiophen-2-yl}-acrylonitrile nitrate]
Effect of overcoming resistance EC50 (concentration for 50% reduction of relative SN-38 resistance value (IC50 A549/SN-38-4 / IC50 A549), nitrate): 17 ng/mL
